# From US12492380B2, “Methods for the production of hepatocytes” (FUJIFILM Cellular Dynamics, Inc., priority 2019, dated 2025)
# Legend:
# iPSC-derived hepatocytes = assay: Stage 3 maturation of thawed end of Stage 2 hepatocytes (morphology, AAT and albumin by flow cytometry); assay type: cell-based, human
# Experimental: Thawing Cryopreserved hepatocytes at Stage 2 of differentiation and maturation to Stage 3 hepatocytes post thaw: Cryopreserved hepatocytes at the end of stage 2 were thawed in Stage 3 media. The cells were plated on Collagen I coated plates without spinning in the presence of a rock inhibitor. The media was gently changed at the end of 24 hours post plating. The maturation media contained SB/DAPT or Src kinase inhibitors and the cells were allowed to differentiate to additional 8-10 days with media exchanges every 48 hrs. The end stage cells were analyzed for hepatocyte morphology and the presence of AAT and albumin expression quantified by flow cytometry.
# Generation of Liver organoids: Aggregates consisting of hepatocytes and other liver relevant cell types—specifically macrophages, MSC, and endothelial cells—designed to mimic liver organoid culture were established and maintained for 5-10 days. Aggregates were established in hepatocyte Stage 3 media (Table 2) supplemented with 1 μM of H1152, with the non-hepatocyte cells undergoing adaptation to Stage 3 media prior to initiation of co-cultures. For co-culture initiation, end of Stage 1 cells Hepatocytes were recovered from cryopreservation and aggregated at 500,000 cells/mL in Stage 2 media (Table 2) supplemented with 1 μM of rho kinase (rock) inhibitor H1152. […]
# type I TGF-β receptors = settings: direct inhibition, unrelated to Src signaling; cited from earlier work
# ZAP-70 = target: T1, ZAP-70 (Homo sapiens, UniProt P43403); settings: cited from earlier work
# T1 sequence (P43403 1-619): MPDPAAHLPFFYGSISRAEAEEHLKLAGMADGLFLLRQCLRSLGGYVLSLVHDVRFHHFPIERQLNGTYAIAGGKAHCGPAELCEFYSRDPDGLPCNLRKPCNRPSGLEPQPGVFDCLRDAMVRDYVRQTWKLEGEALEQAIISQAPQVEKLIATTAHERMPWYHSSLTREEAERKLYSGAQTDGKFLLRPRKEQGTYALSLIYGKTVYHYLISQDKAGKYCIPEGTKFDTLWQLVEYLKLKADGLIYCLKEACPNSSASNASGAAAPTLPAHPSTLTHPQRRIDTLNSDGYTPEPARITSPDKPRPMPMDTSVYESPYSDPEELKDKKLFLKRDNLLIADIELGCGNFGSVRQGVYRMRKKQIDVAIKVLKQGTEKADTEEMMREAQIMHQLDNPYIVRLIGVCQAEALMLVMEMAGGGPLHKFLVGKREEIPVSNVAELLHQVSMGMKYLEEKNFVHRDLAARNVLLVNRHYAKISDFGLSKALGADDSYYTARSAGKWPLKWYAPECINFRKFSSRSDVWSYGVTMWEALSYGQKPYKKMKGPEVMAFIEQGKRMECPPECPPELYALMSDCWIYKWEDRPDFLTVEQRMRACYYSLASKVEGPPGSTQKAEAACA
# iPSCs = assay: CHIR99021 preconditioning/supplementation during iPSC to hepatocyte differentiation; assay type: cell-based, human; settings: supplementation midway through differentiation
# Experimental: iPS cells were maintained on […] ® in E8 Medium under hypoxic conditions (5% 02), using 0.5 mM EDTA for splitting approximately every 4-5 days. The iPSC cultures were acclimatized to hypoxia for around 10 passages before the onset of hepatocyte differentiation. Starting iPS cell cultures were seeded at 15-20 k/cm^2 on […] ®-coated 6-well plates or T150 flasks. Two days after seeding, media was changed to preconditioning medium (PCM) and fed daily for two-three days. Endoderm induction was performed by placing the cells in media containing activin (DE Day 0 Medium, also referred to as T0 medium). On days 1-2, media was changed to DE Day 1-2 Medium (also referred to as T1-T2 medium) containing activin, along with low concentrations of BMP4, VEGF and FGF2 for the next two days. From day 3-9, media was changed to DE Day 3-9 (also referred to as T3-T6 medium) with the base medium SFD, supplemented with Activin, BMP4 and VEGF. On day 10, a sampling of the culture was performed for staining the percentage of definitive endoderm cells. […] Surface staining was performed to quantify the levels of Tra181, CXCR4, CD117 by flow cytometry. […]
# Alternately, the cell individualized cell suspension was placed in media for aggregate formation. […] Intracellular staining to quantify the levels of AAT, ASGPR, Albumin, and matched isotypes was performed via flow cytometry. […]
"maturation of hepatocytes in co-culture (iPSC-derived hepatocytes; in the presence of MSCs, macrophages and endothelial cells)",SMILES,"maturation of hepatocytes (iPSC-derived hepatocytes; PP1 substituted for SB431542/DAPT in Stage 3 maturation media, post thaw, preliminary data)",IC50 (type I TGF-β receptors),IC50 (ZAP-70),expansion of cells during hepatoblast to hepatocyte transition (iPSCs)
enhances the maturation of Hepatocytes,Cc1ccc(-c2nn(C(C)(C)C)c3ncnc(N)c23)cc1 [PP1],facilitated the maturation of hepatocytes,50 nM,≥ 600 nM,
,Cc1c[nH]c(-c2cnc(NCCNc3ccc(C#N)cn3)nc2-c2ccc(Cl)cc2Cl)n1 [CHIR99021],,,,effective in promoting the expansion of cells
